The test system of data set [1] is HIF-1. In words: Assay of IC50, Hep3B cells (HRE-luciferase transfected). Format: cell-based. The following applies: Homo sapiens. From the text: (§1) Six tandem repeats of HRE (hypoxia Responsive Element 5′-ACGTG-3′), which is present in a human VEGF gene, was inserted into the multi-cloning region of a pGL3-basic vector (Promega) containing a luciferase gene as a reporter gene to produce a recombinant pGL3-HRE-luciferase vector which was then used to assay the compounds prepared in the above Examples for inhibition activity against HIF-mediated transcriptional activity.

The subject of data set [2] is HIF-1. Put plainly: Assay of IC50, AGS cells (HRE-luciferase transfected). It is filed as cell-based. The following applies: Homo sapiens.
Excerpt: as §1

The test system of data set [3] is HIF-1. Put plainly: Assay of IC50, SK-Hep-1 cells (same manner). It is filed as cell-based. The following applies: Homo sapiens, SK-HEP1; SK-Hep-1 cell line, compounds 0.01 to 100 μM for 16 hrs.
Excerpt: as §1

Data set [4] deals with metastatic breast carcinoma cell line MDA-MB-435. In words: In vivo anticancer activity in nude mice implanted with MDA-MB-435. To be noted: for inhibition of the growth of the cancer cells compared to the control: once a day, MDA-MB-435 in nude mice. From the text: Female nude mice 5-6 weeks old (Crj:BALB/c nu/nu, Charles River) were bred in germ-free breeding rooms maintained at constant temperature and humidity. The nude mice were anesthetized before incision of the chest skin. The metastatic breast carcinoma cell line MDA-MB-435, obtained from DR D. R. Welch, Univ. Alabama, was implanted at a count of 10^6 cells/mouse into the mammary gland fat pad, and the incisions were then closed with surgical clips. The nude mice were divided into test groups and a control group, each consisting of 6 mice. […] For the control group, Solution A alone was used at a dose of 100 μl once a day. Thereafter, tumor volumes and body weights were measured once a week. Tumor volumes were calculated according to the following Mathematic Formula 1. Tumor Volume (mm^3)=(Length of Long Axis,mm)×(Length of Short Axis,mm)^2×0.5 <Mathematic Formula 1>

As to `COC(=O)c1cccc(NC(=O)COc2ccc(C34CC5CC(CC(C5)C3)C4)cc2)c1` [Example 2, 3-[2-(4-Adaman-1-yl-phenoxy)-acetylamino]-benzoic acid methyl ester], the IC50 in data set [1] turned out to be 9.9 µM; in data set [2] it was 7.4 µM.

For the compound `CC(C)(C)c1ccc(OCC(=O)Nc2cccc(C(N)=O)c2)cc1` [Example 30, 3-[2-(4-tert-butyl-phenoxy)-acetyl-amino]-benzamide], the 50% inhibitory concentration (IC50) in data set [1] and in data set [2] was above 30 µM each time.

With `Cc1ccc(OCC(=O)Nc2cccc(C(N)=O)c2)cc1` [Example 31, 3-(2-p-tolyloxy-acetyl-amino)-benzamide], the IC50 in data set [1] and in data set [2] was above 30 µM each time.

With `NC(=O)c1cccc(NC(=O)COc2ccc([N+](=O)[O-])cc2)c1` [Example 32, 3-[2-(4-nitro-phenoxy)-acetyl-amino)benzamide], the IC50 in data set [1] and in data set [2] was above 30 µM throughout.

For the compound `O=C(COc1ccc(F)cc1)Nc1cccc(C(=O)O)c1` [Example 51, 3-[2-(4-fluoro-phenoxy)acetylamino]-benzoic acid], the IC50 in data set [1] and in data set [2] was above 30 µM in each case.

With `O=C(COc1ccc(Cl)cc1)Nc1cccc(C(=O)O)c1` [Example 52, 3-[2-(4-chloro-phenoxy)-acetylamino]-benzoic acid], the IC50 in data set [1] is above 30 µM; in data set [2], 10 µM.

Consider `O=C(COc1ccc(Br)cc1)Nc1cccc(C(=O)O)c1` [Example 57, 3-[2-(4-bromo-phenoxy)-acetylamino]-benzoic acid], for which the IC50 in data set [1] was above 30 µM; in data set [2] it was 1.6 µM.

On to `O=C(COc1ccc(I)cc1)Nc1cccc(C(=O)O)c1` [Example 58, 3-[2-(4-iodo-phenoxy)-acetylamino]-benzoic acid], for which the results for the IC50 in data set [1] and in data set [2] were 7.2 µM and 3.5 µM, respectively.

For the compound `CC(=O)c1ccc(OCC(=O)Nc2cccc(C(=O)O)c2)cc1` [Example 60, 3-[2-(4-acetyl-phenoxy)-acetylamino]-benzoic acid], the IC50 in data set [1] and in data set [2] was above 30 µM each time.

On to `NC(=O)c1ccc(O)c(NC(=O)COc2ccc(C34CC5CC(CC(C5)C3)C4)cc2)c1` [Example 65, 3-[2-(4-adamantan-1-yl-phenoxy)-acetylamino]-4-hydroxy-benzamide], for which the half-inhibitory concentration (IC50) in data set [1] was above 30 µM; in data set [2], 1.5 µM.

For `CN(C)C(=O)c1ccc(O)c(NC(=O)COc2ccc(C34CC5CC(CC(C5)C3)C4)cc2)c1` [Example 66, 3-[2-(4-adamantan-1-yl-phenoxy)-acetylamino]-4-hydroxy-N,N-dimethyl-benzamide], the IC50 in data set [1] and in data set [2] was above 30 µM in each case.

With `O=C(COc1ccc(C23CC4CC(CC(C4)C2)C3)cc1)Nc1cc(C(=O)NCc2ccco2)ccc1O` [Example 67, 3-[2-(4-adamantan-1-yl-phenoxy)-acetylamino]-N-furan-2-ylmethyl-4-hydroxy-benzamide], the IC50 is 12.6 µM in data set [1] and 5.9 µM in data set [2].

`CN(C)CCNC(=O)c1ccc(O)c(NC(=O)COc2ccc(C34CC5CC(CC(C5)C3)C4)cc2)c1` [Example 68, 3-[2-(4-adamantan-1-yl-phenoxy)-acetylamino]-N-(2-dimethylamino-ethyl)-4-hydroxy-benzamide]: the values for the IC50 in data set [1] and in data set [2] were 51.7 µM and 3 µM, respectively.

`O=C(COc1ccc(C23CC4CC(CC(C4)C2)C3)cc1)Nc1cc(C(=O)NCCCN2CCOCC2)ccc1O` [Example 69]: the IC50 in data set [1] and in data set [2] was above 30 µM throughout.

`O=C(COc1ccc(C23CC4CC(CC(C4)C2)C3)cc1)Nc1cccc(C(=O)Nc2ccc(Cl)cc2)c1` [Example 70, 3-[2-(4-adamantan-1-ylphenoxy)-acetylamino]-N-(4-chloro-phenyl)-benzamide]: the values for the concentration for half-maximal inhibition (IC50) in data set [1] and in data set [2] were above 30 µM and 9.5 µM, respectively.

For the compound `O=C(COc1ccc(C23CC4CC(CC(C4)C2)C3)cc1)Nc1cccc(C(=O)Nc2ccc3ccccc3c2)c1` [Example 72, 3-[2-(4-adamantan-1-yl-phenoxy)-acetylamino]-N-naphtalene-2-yl-benzamide], the IC50 in data set [1] and in data set [2] was above 30 µM throughout.

As to `O=C(COc1ccc(C23CC4CC(CC(C4)C2)C3)cc1)Nc1cccc(C(=O)NCc2ccco2)c1` [Example 73], the figures for the IC50 in data set [1] and in data set [2] were 14.1 µM and 2 µM, respectively.

In the case of `O=C(COc1ccc(C23CC4CC(CC(C4)C2)C3)cc1)Nc1cccc(C(=O)NCCc2ccncc2)c1` [Example 74], the IC50 is 8.2 µM in data set [1] and 3.1 µM in data set [2].

Take `O=C(COc1ccc(Cl)cc1Cl)Nc1cccc(C(=O)NCc2ccco2)c1` [Example 77, 3-[2-(2,4-dichloro-phenoxy)-acetylamino]-N-furan-2-ylmethyl-benzamide]: the IC50 is above 30 µM in data set [1] and 35 µM in data set [2].

Turning to `O=C(COc1ccc(Cl)cc1Cl)Nc1cc(C(=O)NCc2ccco2)ccc1O` [Example 78, 3-[2-(2,4-dichloro-phenoxy)-acetylamino]-N-fan-2-ylmethyl-4-hydroxy-benzamide], the values for the IC50 in data set [1] and in data set [2] were 23.2 µM and above 30 µM, respectively.

Turning to `COC(=O)c1ccnc(NC(=O)COc2ccc(C34CC5CC(CC(C5)C3)C4)cc2)c1` [Example 86, 2-[2-(4-adamantan-1-yl-phenoxy)acetylamino]-isonicotinic acid methyl ester], the figures for the IC50 in data set [1], in data set [2] and in data set [3] were 1.2 µM, 2 µM and 1.03 µM, respectively.

In the case of `COC(=O)c1cncc(NC(=O)COc2ccc(C34CC5CC(CC(C5)C3)C4)cc2)c1` [Example 87, 5-[2-(4-adamantan-1-yl-phenoxy)acetylamino]-nicotinic acid methyl ester], the IC50 in data set [1] was 5.9 µM; in data set [2], 5 µM; in data set [3], above 30 µM.

Turning to `O=C(COc1ccc(Cl)cc1Cl)Nc1cc(C(=O)O)ccn1` [Example 95, 2-[2-(2,4-dichloro-phenoxy)-acetylamino]-isonicotinic acid], the “inhibition of the growth of the cancer cells compared to the control” value in data set [4] (20 mg/kg) came to 4.3%; in data set [4] (50 mg/kg) it was 36.5%. Moreover, the “deaths in six mice of each group” value in data set [4] (50 mg/kg) is “No dead were observed”.

Consider `O=C(COc1ccc(C23CC4CC(CC(C4)C2)C3)cc1)Nc1cc(C(=O)O)ccn1` [Example 98, 2-[2-(4-adamantan-1-yl-phenoxy)acetylamino]-isonicotinic acid], for which the IC50 in data set [1] turned out to be 1.03 µM; in data set [3], 2 µM.

In data set [3], `O=C(COc1ccc(C23CC4CC(CC(C4)C2)C3)cc1)Nc1cncc(C(=O)NCCc2ccncc2)c1` [Example 102, 5-[2-(4-adamantan-1-yl-phenoxy)acetylamino]-N-(2-pyridine-4-yl-ethyl)nicotinamide] showed an IC50 above 30 µM.

Consider `O=C(COc1ccc(C23CC4CC(CC(C4)C2)C3)cc1)Nc1cncc(C(=O)NCCCn2ccnc2)c1` [Example 103, 5-[2-(4-adamantan-1-yl-phenoxy)-acetylamino]-N-(3-imidazole-1-yl-propyl)nicotinamide], for which the IC50 in data set [3] is 1.9 µM.

The compound `O=C(COc1ccc(C23CC4CC(CC(C4)C2)C3)cc1)Nc1cc(C(=O)Nc2ccc(Cl)cc2)ccn1` [Example 104, 2-[2-(4-adamantan-1-yl-phenoxy)-acetylamino]-N-(4-chloro-phenyl)-isonicotinamide] yielded an IC50 in data set [3] of 2.5 µM.

`O=C(COc1ccc(C23CC4CC(CC(C4)C2)C3)cc1)Nc1cc(C(=O)NCc2ccco2)ccn1` [Example 105, 2-[2-(4-adamantan-1-yl-phenoxy)-acetylamino]-N-furan-2-ylmethyl-isonicotinamide] showed an IC50 in data set [3] above 30 µM.

For `O=C(COc1ccc(C23CC4CC(CC(C4)C2)C3)cc1)Nc1cc(C(=O)NCCc2ccncc2)ccn1` [Example 106, 2-[2-(4-adamantan-1-yl-phenoxy)-acetylamino]-N-(2-pyridine-4-yl-ethyl)-isonicotinamide], in data set [3], the IC50 is 3.4 µM.

`O=C(COc1ccc(C23CC4CC(CC(C4)C2)C3)cc1)Nc1cc(C(=O)NCCCn2ccnc2)ccn1` [Example 107, 2-[2-(4-adamantan-1-yl-phenoxy)-acetylamino]-N-(3-imidazole-1-yl-propyl)-isonicotinamide] yielded an IC50 in data set [3] below 1 µM.

For `NC(=O)c1cncc(NC(=O)COc2ccc(C34CC5CC(CC(C5)C3)C4)cc2)c1` [Example 112, 5-[2-(4-adamantan-1-yl-phenoxy)acetylamino]-nicotinamide], the IC50 in data set [3] came to 11.9 µM.

Usually IC50 stands for the concentration at which inhibition is half-maximal. Low readings indicate greater potency in that assay, high ones weaker potency in that assay.
